Laboratory results reported in paper PMC12176268, “Structural Features and Photophysical and Antiproliferative Properties of Me2N‑pbt-Cycloplatinated Complexes with Picolinate Ligands” (Inorganic Chemistry, 2025).
Where two headings read alike, the source gives them in different places.

Tests used:
[1] = test system: A549; assay: MTT cell viability assay on A549 cells, dark and 450 nm irradiation; type: cell-based, human; details: for EC50: MTT
Source text: (C∧N) cyclometalated Pt(II) complexes have been previously reported to have strong antiproliferative activities when associated with phenanthroline-based, diphosphine, acyclic diamino carbenes, or picolinate ligands. In particular, (Me2N-pbt)-cyclometalated platinum complexes have been previously reported by some of us to have antiproliferative properties in the micromolar range on a panel of cancer cell lines, prompting us to investigate the anticancer properties of complexes 1–4 in dark conditions and, considering their high quantum yield (ϕΔ) of ^1O2 generation, under irradiation conditions. Due to the poor solubility of the complexes in an aqueous environment, complexes 1–4 were first dissolved in DMSO and diluted in the culture media to reach a final concentration of 1% DMSO when incubated with the cells. All complexes were screened against the so-called “triple-negative” breast cancer cell line MDA-MB-231, lung adenocarcinoma cell line A549, and the noncancerous breast cell line MCF-10A for 72 h in dark conditions and under 5 min irradiation at 450 nm (see Experimental Section for details). The irradiation time was kept short to prevent light-induced toxicity of the energetic wavelength observed at longer irradiation times (data not shown). The measurement of the effective concentration at 50% (EC50) was carried out using the classical MTT assay, and the data are provided in Table .
In dark conditions, we could notice a strong influence of substituents on the picolinate ligands. […] This can be correlated with its poor stability in the culture medium mentioned above, which might reduce its cellular uptake. […] However, in dark conditions, no particular selectivity for cancer cells could be observed with similar activity measured against the noncancerous cell line MCF-10A. For the “light” experiments, the cells were preincubated with the complexes for 4 h in the dark, irradiated at 450 nm for 5 min, and then put back in the dark until 72 h. The photoactivity index (PI) values, defined as the ratio between the EC50 in dark conditions and the EC50 after irradiation for each cell line, are shown in Figure .
The human lung adenocarcinoma cell line A549 and human breast cancer cell line MDA-MB-231 were cultivated in DMEM (Dulbecco’s modified Eagle’s medium) containing GlutaMax I supplemented with 10% FBS at 37 °C in a humidified atmosphere and 5% CO2. The noncancerous cell line MCF-10A was maintained in DMEM:F12 (1:1) cell culture media, 5% heat-inactivated horse serum, supplemented with HEPES (20 mM), L-glutamine (2 mM), epidermal growth factor (20 ng/mL), hydrocortisone (500 ng/mL), cholera toxin (100 ng/mL), and insulin (10 μg/mL). Cell viability was evaluated by using a colorimetric method based on the tetrazolium salt MTT [3-(4,5-dimethylthiazol-2-yl)-2,5-diphenyltetrazolium bromide], which is reduced by viable cells to yield purple formazan crystals. Cells were seeded in 96-well plates at a density of 40000 cells/mL (100 μL per well). Stock solutions were prepared in DMSO for complexes 1–4 and in water for cisplatin. […] For dark experiments, after overnight attachment, a dilution series of the compounds was added to the medium, and the cells were incubated for a further 72 h. For the irradiated experiments, after overnight attachment, a dilution series of the compounds was added to the medium, and the cells were preincubated for 4 h. The cells were then irradiated at 450 nm for 5 min with a Kessil Lamp (power: 3 mW/cm^2, 1.13 × 10^–8 Einstein/s at 20 cm distance between the light source and 96-well plate) and the incubation was continued until 72 h. After 72 h, the medium was removed and the cells were incubated with MTT solution in PBS (10 μL of 5 mg/mL) for 2–3 h. The formed purple formazan crystals were dissolved in 100 μL of DMSO by thorough shaking, and the absorbance at 580 nm was read using a microplate reader (FLUOstar OPTIMA, BMG Labtech). Each test was performed with at least 3 replicates and repeated at least 3 times. […]

[2] = target: bovine serum albumin (BSA) (Bos taurus, UniProt P02769); assay: Quenching of intrinsic BSA fluorescence (Stern–Volmer, binding constant); details: 5 μM BSA, 20 mM PB pH 7.4, 1% DMSO, 1 h room temperature
Protocol: In order to further characterize the interactions between complex 3 and BSA, we monitored the evolution of the intrinsic emission band of BSA upon excitation at 290 nm, attributed to the Trp213 residue located in the hydrophobic domain IIA, in the presence of an increasing concentration of complex 3. Briefly, the emission spectra of solutions containing 5 μM BSA dissolved in 20 mM PB buffer (pH 7.4) containing 1% DMSO incubated for 1 h at room temperature with concentrations of 3 ranging from 1 to 100 μM (Figure S33A) were recorded. […] The kinetics of the intermolecular quenching processes follow the Stern–Volmer eq : 2 F0/F=1+Ksv[3] where F 0 is the fluorescence intensity of pure BSA, F is the fluorescence intensity after the addition of 3, and K SV is the Stern–Volmer dynamic quenching efficiency (Figure S33B). K SV (eq ) can be expressed as the product of the quenching rate k q and the average lifetime of the fluorophore τ0 in the excited state, which is typically 10^–8 s. 3 KSV=kqτ0
The linear Stern–Volmer plot can be indicative of either a dynamic or static quenching mechanism.
It is further possible to determine the number of binding sites (n) and the binding constant (Kb) by plotting log((F0-F)/F) vs log([3]) (Figure S33C) according to eq . 4 log(F0−F/F)=logKb+nlog[3] […]

Chain of bovine serum albumin (BSA) (P02769 25-607): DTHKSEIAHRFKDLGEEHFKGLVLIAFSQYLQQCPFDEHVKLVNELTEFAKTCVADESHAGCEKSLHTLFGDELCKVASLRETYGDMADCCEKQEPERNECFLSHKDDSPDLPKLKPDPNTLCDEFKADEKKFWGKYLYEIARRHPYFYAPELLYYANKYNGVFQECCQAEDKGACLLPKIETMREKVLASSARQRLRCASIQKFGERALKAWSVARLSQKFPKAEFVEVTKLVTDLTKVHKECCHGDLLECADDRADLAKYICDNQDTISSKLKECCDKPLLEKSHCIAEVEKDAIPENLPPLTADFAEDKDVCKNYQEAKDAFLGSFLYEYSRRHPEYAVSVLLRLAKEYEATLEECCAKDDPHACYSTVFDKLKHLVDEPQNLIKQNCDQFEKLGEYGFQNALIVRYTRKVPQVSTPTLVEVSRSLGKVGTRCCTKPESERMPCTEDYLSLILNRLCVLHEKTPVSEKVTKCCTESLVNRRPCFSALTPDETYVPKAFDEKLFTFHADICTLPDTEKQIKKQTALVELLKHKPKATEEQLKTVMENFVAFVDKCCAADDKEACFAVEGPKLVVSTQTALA

[Pt(Me2N-pbt)(3-OH-pic-κN,O)] [Complex 3]
photoactivity index (PI), EC50 dark / EC50 after irradiation, A549 ([1]; 5 min irradiation at 450 nm): 5.6 | EC50 ([1]; 4 h preincubation, 5 min irradiation at 450 nm, then dark until 72 h, read-out: EC50 A549 light): 1.1 ± 0.08 µM | EC50 ([1]; 72 h incubation at 37 °C, dark, read-out: EC50 A549 dark): 6.1 ± 0.2 µM | reduction of the antiproliferative activity relative to 1, A549 ([1]; dark conditions): ~5 times | number of binding sites (n) on BSA [2]: 0.9 ± 0.07 | quenching rate kq of BSA fluorescence ([2]; λexc 290 nm, τ0 10^–8 s): 2.21 ± 0.12 × 10^12 M^–1.s^–1
